The values that follow come from patent US20130116251A1, “Novel HSP90 Inhibitor” (Nippon Kayaku Kabushiki Kaisha, priority 2005, published 2013).

One series addresses rHSP90. Kind of series: HSP90 binding assay (BIACORE SPR; inhibition of binding between rHSP90 and fixed herbimycin A). The conditions noted are these: concentration inhibiting binding between rHSP90 (50 μg/mL) and fixed herbimycin A by 50%, BIACORE-X SPR; read-out: HSP90 inhibitory activity IC50. Background: SPR reads the build-up and loss of mass on a sensor chip optically.
For series [1], the system named is Human breast cancer cells (MCF7). Kind of series: Antiproliferative activity on MCF7 cells (methylene blue method). It counts as cell-based. The conditions noted are these: Homo sapiens, MCF7, 72 h, MCF7 cells, 72 hours treatment, 660 nm absorbance after methylene blue staining; read-out: Antiproliferative activity IC50.
The subject of series [2] is HSP90 client protein Her2 in MCF7 cells. Nature of the series: Measurement test for amount of HSP90 client protein Her2 (Western blotting). It counts as cell-based. The conditions noted are these: MCF7 cells treated 16 hours at 3-5 concentrations. The method, then: (§1) MCF7 cells (American Type Culture Collection, Rockville, Md.) were treated with the compounds of the present invention at various concentrations for 16 hours to confirm that the HSP90 inhibitors of the present invention induce a depression of intracellular concentration of the client protein or target polypeptide that bind to HSP90. The amount of the HSP90 client protein Her2 and ERα was evaluated by the Western blotting method.
(§2) One million cells were seeded in a 6 cm dish, and 24 hours later the compounds of the present invention (Example 1-2, Example 2-1, Example 2-13, Example 2-2, Example 3-4, Example 2-5, Example 3-16, Example 3-6, Example 2-7, Example 3-27, Example 2-10 and Example 3-18) were added. Cells treated with the compounds were washed, mixed with 150 μl of lysis buffer (RIPA, 150 mM NaCl, 1% NP40, 0.1% deoxycholate (sodium salt), 0.1% SDS, 1 mM EDTA, 10 mM Tris-HCl (pH 8.0)) and incubated at 4° C. for 30 minutes. The cell lysates were centrifuged (15,000 rpm, 20 minutes) and protein (20 μg) of the supernatant was subjected to SDS polyacrylamide gel electrophoresis (SDS-PAGE). After finishing the electrophoresis, proteins in the gel were transferred to a PVDF membrane. The membrane after the transfer was treated with a primary antibody against the HSP90 client protein (anti Her2 or anti ERa antibody, both from Santa Cruz Biotechnology, Santa Cruz, Calif.), then treated with secondary antibodies (anti-rabbit Ig, horse radish peroxidase conjugated F(ab′)2 fragment (derived from donkey): Amersham Biosciences, UK Limited, Buckinghamhshire, UK.) and then the amount of the client protein was detected as the intensity of chemiluminescence signal with a chemiluminescence reagent (ECL: Amersham Biosciences UK Limited, Buckinghamshire, UK).
In general terms: A western blot detects proteins with antibodies after separation by electrophoresis.

Series [3] has as its system HSP90 client protein ERα in MCF7 cells. Nature of the series: Measurement test for amount of HSP90 client protein ERα (Western blotting). The conditions noted are these: MCF7 cells treated 16 hours at 3-5 concentrations. It counts as cell-based. As to the method: as §1, §2
The test system of another series is Human lung cancer H460. Kind of series: Antitumor effect on nude mice transplanted with human lung cancer H460. It counts as in vivo. The conditions noted are these: tail vein, 5 days continuous, day 8, starting day = 1.0. The method, then:
Antitumor Effect on Nude Mice Transplanted with Human Lung Cancer
Human lung cancer H460 tumor fragment, which had been passaged subcutaneously in nude mice, was made into about 3 mm fragment and transplanted subcutaneously to the back of nude mice using a trocar. When the tumor volume grew to about 50 mm^3 or above, the compound of the present invention was administered to the tail vein once a day for 5 or 7 days every day. The compound of the present invention was dissolved in DMSO, mixed with TWEEN 80, and then diluted with a 5% glucose injection solution and used. The vehicle of the compound was administered to the control group of OH-a01. The control groups in other experiments were not treated. The tumor volume was measured on the first administration day and on the evaluation day (7 or 8 days after the start of the administration), and the relative tumor volume of the evaluation day was obtained from the tumor volume on the first administration day. Further, the tumor volume was calculated by measuring the major axis (Lmm) and minor axis (Wmm) of the tumor and by the formula (L×W^2)/2.
Relative tumor volume represents the average relative tumor volume on day 7 after the start of the administration, assuming the tumor volume of the starting day is 1.0.
Relative tumor volume represents the average relative tumor volume on day 8 after the start of the administration, assuming the tumor volume of the starting day is 1.0.

Where a name gives a salt, the structure may show the parent alone.

The melting point is the temperature, or range, at which the solid turns liquid. With `COc1ccc(-n2c(-c3cc(C(C)C)c(O)cc3O)nnc2S(=O)(=O)CCCN(C)C)cc1` (as salt: hydrochloride) [SFN2-a08, 4-[5-(3-dimethylamino-propane-1-sulfonyl)-4-(4-methoxy-phenyl)-4H-[1,2,4]triazol-3-yl]-6-isopropyl-benzene-1,3-diol], the melting point was 233 °C (dec.).
What is called IC50 is the concentration at which inhibition is half-maximal. With `COc1ccc(-n2c(-c3cc(C(C)C)c(O)cc3O)n[nH]c2=O)cc1` [OH-a08, 5-(2,4-dihydroxy-5-isopropyl-phenyl)-4-(4-methoxy-phenyl)-2,4-dihydro-[1,2,4]triazol-3-one], the melting point was 272 °C (dec.). The IC50 on rHSP90 was 120 nM. For the same compound, the IC50 in series [1] worked out at 11 nM. Further, the “amount of HSP90 client protein Her2” value in series [2] is on record as “depression”. The “amount of HSP90 client protein ERα” value in series [3] was “depression”. Also, the “Relative tumor volume (Average ± SD)” value in the series with Human lung cancer H460 (Table 9, 100 mg/kg/day, control group 4.6 ± 3.1) was 1.9 ± 1.0. Besides, the “Relative tumor volume (Average ± SD)” value with Human lung cancer H460 (Table 9, 200 mg/kg/day, control group 4.6 ± 3.1) is listed as 1.1 ± 0.3.
Consider `CC(C)c1cc(-c2n[nH]c(=O)n2C(C)C)c(O)cc1O` [OH-a21, 5-(2,4-dihydroxy-5-isopropyl-phenyl)-4-isopropyl-2,4-dihydro-[1,2,4]triazol-3-one], for which the melting point is 261 to 262 °C (dec.). The IC50 at rHSP90 amounted to 130 nM. Besides, the IC50 in series [1] amounted to 38 nM. In addition, the “amount of HSP90 client protein Her2” value in series [2] is listed as “depression”. The “amount of HSP90 client protein ERα” value in series [3] was “depression”.
As for `COc1ccc(-n2c(-c3cc(C(C)C)c(O)cc3O)nnc2S(=O)(=O)CCCN2CCCCC2)cc1` [SFN3-a08, 4-isopropyl-6-[4-(4-methoxy-phenyl)-5-(3-piperidin-1-yl-propane-1-sulfonyl)-4H-[1,2,4]triazol-3-yl]-benzene-1,3-diol], the values for the IC50 (at rHSP90; in series [1]) were 590 nM and 44 nM, respectively. Also, in series [2], the “amount of HSP90 client protein Her2” value is “depression”. In addition, in series [3], the “amount of HSP90 client protein ERα” value is “depression”. In addition, the “Relative tumor volume (Average ± SD)” value in the series on Human lung cancer H460 (Table 10, 100 mg/kg/day, control group 6.5 ± 2.0) came out at 5.4 ± 1.3; in the series with Human lung cancer H460 (Table 10, 150 mg/kg/day, control group 6.5 ± 2.0) it was 2.9 ± 0.6.
